Data on 21 compounds can be found in US8778951B2, “Heteroaryl compounds and their uses” (Novartis AG, priority 2009, dated 2014).

Each structure is given as a SMILES string.

In the first experiment the test system is neointima formation.
Test: not given
As to conditions: rats; cited from earlier work.
For the compound `COc1ccc(CNc2nc(N(CCO)CCO)nc3c2ncn3C(C)C)cc1` [CVT-313], the “inhibition of neointima formation” value is given as “greater than 80%”.

A further experiment deals with Cdk9/cyclinT1 (Homo sapiens (Human), UniProt P50750). Nature of the experiment: Cdk9/CyclinT1 IMAP Protocol (fluorescence polarization kinase assay). The class given is biochemical. As to conditions: Table 2; generated using one of the two Cdk9/cyclinT1 assays (IMAP or Alpha Screen), not specified which; unit inferred. In a few lines: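 Reaction used 4 nM Cdk9/cyclinT1, 100 nM 5TAMRA-cdk7tide peptide and 6 uM ATP in 100 mM Tris pH 7.2 with MgCl2, 0.01% Tween-20, 1 mM DTT and 2.5% DMSO, running 4.5 h. Phosphopeptide was captured by IMAP binding reagent for >1 h, then read by fluorescence polarization (ex 531/em 595 nm).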
Cdk9/cyclinT1, sequence (P50750 whole entry): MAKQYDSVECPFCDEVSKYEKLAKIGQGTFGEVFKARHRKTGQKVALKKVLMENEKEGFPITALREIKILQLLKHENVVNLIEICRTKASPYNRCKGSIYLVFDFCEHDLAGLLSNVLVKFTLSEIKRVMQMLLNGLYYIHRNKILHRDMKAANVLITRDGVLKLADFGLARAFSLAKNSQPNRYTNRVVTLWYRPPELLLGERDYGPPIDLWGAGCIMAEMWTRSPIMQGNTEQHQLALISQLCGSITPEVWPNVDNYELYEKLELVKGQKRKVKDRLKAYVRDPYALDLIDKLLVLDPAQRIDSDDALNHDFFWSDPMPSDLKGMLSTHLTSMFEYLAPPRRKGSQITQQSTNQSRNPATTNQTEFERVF
Cdk9/cyclinT1, sequence (O60563 whole entry partner): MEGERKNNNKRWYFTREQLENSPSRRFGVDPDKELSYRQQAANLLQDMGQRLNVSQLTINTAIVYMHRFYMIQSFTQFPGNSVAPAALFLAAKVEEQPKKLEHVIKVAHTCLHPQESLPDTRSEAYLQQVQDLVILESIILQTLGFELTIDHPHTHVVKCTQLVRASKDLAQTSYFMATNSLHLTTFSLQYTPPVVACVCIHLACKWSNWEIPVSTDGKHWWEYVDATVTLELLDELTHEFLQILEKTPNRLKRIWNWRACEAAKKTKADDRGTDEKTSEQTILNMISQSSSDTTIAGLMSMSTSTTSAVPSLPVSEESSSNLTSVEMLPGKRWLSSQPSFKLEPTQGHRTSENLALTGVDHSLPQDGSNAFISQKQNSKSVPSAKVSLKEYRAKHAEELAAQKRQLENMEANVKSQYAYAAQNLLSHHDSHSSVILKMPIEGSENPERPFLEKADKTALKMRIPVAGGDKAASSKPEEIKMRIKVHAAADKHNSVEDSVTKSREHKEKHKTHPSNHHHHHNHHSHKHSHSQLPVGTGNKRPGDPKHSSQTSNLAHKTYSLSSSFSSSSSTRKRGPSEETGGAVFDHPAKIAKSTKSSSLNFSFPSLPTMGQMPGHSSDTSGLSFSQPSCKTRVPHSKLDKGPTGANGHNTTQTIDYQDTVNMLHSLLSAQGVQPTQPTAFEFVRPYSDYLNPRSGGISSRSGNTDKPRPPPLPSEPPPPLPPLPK
(Fluorescence polarisation rises when a labelled molecule tumbles more slowly, as on binding a larger partner.)
Regarding `NCCCNc1cc(-c2cccc(NCc3cccc(F)c3)n2)c(Cl)cn1` [Compound 144], the IC50 was 15.8 nM.
The compound `COC[C@@H](C)N[C@H]1CC[C@H](Nc2cc(-c3nc(NCC4CCOCC4)ccc3F)c(Cl)cn2)CC1` [Compound 293] came in with an IC50 of 1 nM.
`Fc1cccc(CNc2cccc(-c3cc(N[C@@H]4CCCOC4)ncc3Cl)n2)c1` [Compound 148] registered an IC50 of 15600 nM.
Consider `Fc1cc(F)cc(CNc2cccc(-c3cc(N[C@H]4CCCNC4)ncc3Cl)n2)c1` [Compound 98], for which the midpoint of inhibition, the IC50, lay at 416 nM.
`CC1(CNc2nc(-c3cc(N[C@H]4CC[C@H](NC5CCS(=O)(=O)CC5)CC4)ncc3Cl)ccc2F)CCOCC1` [Compound 346] showed a 50% inhibitory concentration (IC50) of 1 nM.
Turning to `CC(C)CN1CCC(Nc2cc(-c3cccc(NCc4cccc(F)c4)n3)c(Cl)cn2)CC1` [Compound 102], the midpoint of inhibition, the IC50, lay at 121 nM.
The same measure, in the same setting: the value for `COC[C@@H](C)N[C@H]1CC[C@H](Nc2cc(-c3cccc(NCC4(C)CCS(=O)(=O)CC4)n3)c(Cl)cn2)CC1` [Compound 365] was 0.7 nM; that for `O[C@H]1CC[C@H](Nc2cc(-c3cccc(NCc4cc(F)cc(F)c4)n3)c(Cl)cn2)CC1` [Compound 133] was 7.95 nM.
With `COCCN[C@H]1CC[C@H](Nc2cc(-c3cccc(NCc4cc(F)cc(F)c4)n3)c(Cl)cn2)CC1` [Compound 193], half-maximal inhibition (IC50) required 7.94 nM.
Same read-out and setting: the value for `COCCN[C@H]1CC[C@H](Nc2cc(-c3ccc(F)c(NCC4(C#N)CCOCC4)n3)c(Cl)cn2)CC1` [Compound 339] was 0.17 nM; that for `O[C@H]1CC[C@H](Nc2cc(-c3cccc(NC[C@H]4CCCNC4)n3)c(Cl)cn2)CC1` [Compound 121] was 10500 nM.
Regarding `CC1(C)CC(CNc2ccc(Cl)c(-c3cc(N[C@H]4CC[C@H](NC[C@@H](O)C(F)(F)F)CC4)ncc3Cl)n2)CCO1` (stereo partly drawn) [Compound 299], the 50% inhibitory concentration (IC50) is 1 nM.
The compound `Fc1cccc(CNc2cccc(-c3cc(NCCC4CCOCC4)ncc3Cl)n2)c1` [Compound 174] showed an IC50 of 29 nM.
In turn, `OC[C@H]1CC[C@H](Nc2cc(-c3cncc(NCC4CCOCC4)n3)c(Cl)cn2)CC1` [Compound 242] showed an IC50 of 15.4 nM.
`COC[C@H]1CC[C@H](Nc2cc(-c3cccc(NCc4cccc(F)c4)n3)c(Cl)cn2)CC1` [Compound 190] had an IC50 of 100 nM.
Compound `CN(C)C(=O)[C@H]1CC[C@@H](Nc2cc(-c3cccc(NCc4cccc(F)c4)n3)c(Cl)cn2)C1` [Compound 205, (1S,3R)-3-(5′-chloro-6-(3-fluorobenzylamino)-2,4′-bipyridin-2′-yl-amino)-N,N-dimethylcyclopentanecarboxamide] displayed an IC50 of 17.5 nM.
On the same count and under the same terms, the value for `CN(C)CC(=O)N1CCC(Nc2cc(-c3cccc(NCc4cccc(F)c4)n3)c(Cl)cn2)CC1` [Compound 85] was 68.5 nM; that for `CN(CC1CCOCC1)c1cncc(-c2cc(N[C@H]3CC[C@H](CO)CC3)ncc2Cl)n1` [Compound 251] was 43.2 nM.
Still for that read-out and setting: then `CN(CC1CCOCC1)c1cncc(-c2cc(N[C@H]3CC[C@H](O)CC3)ncc2Cl)n1` [Compound 250], with 28.4 nM.
The compound `NC[C@H]1CC[C@H](Nc2cc(-c3cccc(NCc4cccc(F)c4)n3)c(Cl)cn2)CC1` [Compound 4, N2′-(trans-4-(aminomethyl)cyclohexyl)-5′-chloro-N6-(3-fluorobenzyl)-2,4′-bipyridine-2′,6-diamine] came in with an IC50 of 9.05 nM.

One may read the IC50 as the point on the concentration scale where inhibition reaches its midpoint.
